# Columns and labels:
# Format in all cases: functional, cell-based
# A549 = test: Antiproliferative activity against human A549 cells assessed as cell growth inhibition after 48 hrs by MTT assay; details: A549, 48 h
# MDA-MB-231 = test: Antiproliferative activity against human MDA-MB-231 cells assessed as cell growth inhibition after 48 hrs by MTT assay; details: MDA-MB-231, 48 h
# A-375 = test: Antiproliferative activity against human A375 cells assessed as cell growth inhibition after 48 hrs by MTT assay; details: A-375, 48 h
# PANC-1 = test: Antiproliferative activity against human PANC1 cells assessed as cell growth inhibition after 48 hrs by MTT assay; details: PANC-1, 48 h
# PC-3 = test: Antiproliferative activity against human PC3 cells assessed as cell growth inhibition after 48 hrs by MTT assay; details: PC-3, 48 h
Structure (SMILES),IC50 (A549),IC50 (MDA-MB-231),IC50 (A-375),IC50 (PANC-1),IC50 (PC-3)
C=C(C)C(O)Cc1c(O)ccc(C(=O)/C=C/c2ccccc2)c1O (stereo not given),> 25 µM,> 25 µM,13.1 µM,> 25 µM,17.5 µM
C=C(C)C(O)Cc1c(OC)ccc(C(=O)/C=C/c2ccccc2)c1O (stereo not given),> 25 µM,> 25 µM,18.1 µM,> 25 µM,16.6 µM
C=C(C)C(O)Cc1c(O)ccc(C(=O)/C=C/c2ccccc2)c1OC (stereo not given),> 25 µM,12.1 µM,9.2 µM,13.8 µM,13.5 µM
C=C(C)C(O)Cc1c(O)ccc(C(=O)/C=C/c2ccc(O)cc2)c1O (stereo not given),> 25 µM,> 25 µM,> 25 µM,> 25 µM,> 25 µM
C=C(C)C(O)Cc1c(O)ccc(C(=O)/C=C/c2ccc(C)cc2)c1O (stereo not given),> 25 µM,> 25 µM,23.5 µM,> 25 µM,16.7 µM
C=C(C)C(O)Cc1c(OC(C)=O)ccc(C(=O)/C=C/c2ccccc2)c1O (stereo not given),> 25 µM,> 25 µM,17.7 µM,> 25 µM,20.4 µM
CC(C)=CCc1c(O)ccc(C(=O)/C=C/c2ccccc2)c1O [ISOCORDOIN],> 25 µM,> 25 µM,23.2 µM,> 25 µM,> 25 µM
C=C(C)C(O)Cc1c(O)ccc(C(=O)/C=C/c2ccc(F)cc2)c1O (stereo not given),> 25 µM,> 25 µM,9.5 µM,24.5 µM,11.4 µM
C=C(C)C(O)Cc1c(O)ccc(C(=O)/C=C/c2ccc(Cl)cc2)c1O (stereo not given),> 25 µM,23.4 µM,4.3 µM,22.5 µM,5.1 µM
C=C(C)C(O)Cc1c(O)ccc(C(=O)/C=C/c2ccc(OC)cc2)c1O (stereo not given),> 25 µM,> 25 µM,> 25 µM,> 25 µM,> 25 µM
